The text below walks through data of PMC4187030, “Effect of cyclodextrin complexation on phenylpropanoids’ solubility and antioxidant activity” (Beilstein Journal of Organic Chemistry, 2014).

Data set [1] in a line: Phase solubility studies, HP-β-CD. The protocol:
(§1) Phase solubility studies were carried out according to the method described by Higuchi and Connors. Excess amount of PP was added to 1 mL of CD solution at different concentrations ranging from 0 to 10 mM. The mixtures were shaken at 25 °C for 24 h then filtered through a 0.45 μm membrane filter. The concentration of PP in the filtrate was determined spectrophotometrically at the maximum wavelength corresponding to each PP. Phase solubility diagrams were obtained by plotting the solubility of PP as a function of CD concentration. Kf value of CD/PP inclusion complex was calculated from the linear segment of the phase–solubility diagrams using the following equation: […]
(§2) where S0 is the intrinsic solubility of PP in the absence of CD and the Slope is the slope of the phase–solubility profile. The solubilizing potential of CD was evaluated by the complexation efficiency (CE) parameter. CE equal the complex to free CD concentration ratio and was calculated from the slope of the phase solubility diagram: […]
(§3) where [CD/PP] is the concentration of dissolved inclusion complex and [CD] is the concentration of dissolved free CD. The CE can be used to calculate the PP:CD ratio as follows:
(§4) The correlation between the CE and the molecular weight of CD or guest allowed the determination of the increase in formulation bulk which can be calculated using the following equation: […]
(§5) where MWCD and MWPP are the molecular weight values of CD and PP, respectively.

A short description of data set [2]: Phase solubility studies, RAMEB. The protocol:
as §1, §2, §3, §4, §5

A short description of data set [3]: Formation constants (Kf) by UV–visible spectral displacement method, α-CD. It is filed as physicochemical. Conditions: UV–visible spectral displacement with MO (MO itself by direct titration), SD <10%. The procedure:
(§6) Formation constant (Kf) values were calculated using a UV–visible spectral displacement method. This method implies first the characterization of the inclusion complexes between CDs and the competitor (methyl orange, MO). The results are summarized in Table 1 in comparison with values from the literature.
(§7) The UV–visible competition method with methyl orange (MO) as competitor was carried out according to the method described by Landy et al.. In order to calculate CD/PP Kf values, CD/MO inclusion complexes were firstly characterized by a direct titration method. Then, a spectral displacement method was applied by adding PP to a solution containing constant concentration of MO and CD. The addition of PP implied an absorbance increment leading to the calculation of CD/PP Kf values. Spectra were recorded between 520–530 nm for a MO concentration fixed at 0.1 mM. This wavelength range corresponds to the optimal spectral variation between the absorbance of free and complexed forms of MO. All Kf values were calculated by an algorithmic treatment applied to the first derivatives of UV spectra in order to avoid any spectral influence of diffraction phenomena. Absorption studies were performed using a UV–visible dual-beam spectrophotometer (Perkin Elmer Lambda 2S) with a 1 cm thick quartz cuvette.

Data set [4] can be described thus: Formation constants (Kf) by UV–visible spectral displacement method, β-CD. It is filed as physicochemical. Conditions: UV–visible spectral displacement with MO (MO itself by direct titration), SD <10%. The protocol:
as §6, §7

Data set [5] can be described thus: Formation constants (Kf) by UV–visible spectral displacement method, HP-β-CD. It is filed as physicochemical. Conditions: UV–visible spectral displacement with MO (MO itself by direct titration), SD <10%. The procedure:
as §6, §7

A short description of data set [6]: Formation constants (Kf) by UV–visible spectral displacement method, RAMEB. It is filed as physicochemical. Conditions: UV–visible spectral displacement with MO (MO itself by direct titration), SD <10%. The protocol:
as §6, §7

Data set [7] in a line: Formation constants (Kf) by UV–visible spectral displacement method, CRYSMEB. Conditions: UV–visible spectral displacement with MO (MO itself by direct titration), SD <10%. It is filed as physicochemical. The procedure:
as §6, §7

How the values of data set [8] were obtained: as §1, §2, §3, §4, §5
Data set [9] in a line: Phase solubility studies, β-CD. The procedure:
as §1, §2, §3, §4, §5

Data set [10] in a line: Phase solubility studies, CRYSMEB. The procedure:
as §1, §2, §3, §4, §5

A short description of data set [11]: Intrinsic solubility (S0) of PP in water. Conditions: thermodynamic from solid, absence of CD, 25 °C. It is filed as physicochemical. The protocol: as §1, §2
Data set [12] in a line: DPPH radical scavenging activity. Conditions: for Change of DPPH radical scavenging activity upon complexation with CDs: PP in 10 mM CD solution vs water; for Kinetic behavior of reaction with DPPH•: PP with ethanolic DPPH• solution; for DPPH radical scavenging (antioxidant) activity of PP alone: absence of CD, 1 h (3, 4, 6, 7) or 15 h (1, 2, 5), 25 °C. The protocol: The 2,2-diphenyl-1-picrylhydrazyl (DPPH) radical scavenging activity of PP and their inclusion complexes was measured using the method described by Brand-Williams, Cuvelier, and Berset (1995) with some modifications. 1 mg of PP was dissolved in 50 mL of water, or 10 mM CD solution. 2 mL aliquot of the solution was vigorously mixed with 2 mL of ethanolic DPPH^• solution (0.1 mM). […]. Blank sample was prepared by mixing 2 mL of distilled water with 2 mL of DPPH^• solution. The scavenging activity was calculated using the following equation: […]
where As and A0 are the absorbance of sample and blank sample, respectively.

For data set [13] the following is noted: β-CD, cited from earlier work.
The conditions of data set [14]: HP-β-CD, cited from earlier work.
For data set [15] the following is noted: α-CD, cited from earlier work.
On the set-up of data set [16]: method as in earlier work. Conditions: cited from earlier work.
For data set [17] the following is noted: RAMEB, cited from earlier work.
For data set [18] the following is noted: CRYSMEB, cited from earlier work.

For orientation: solubility means the dissolved amount per volume that the medium holds. High values mean much dissolved substance, low ones little dissolved substance. The term log P denotes the decadic logarithm of the partition coefficient of the neutral form, usually between octanol and water.

≈ marks a conversion by molar mass, not a printed value. Where two headings read alike, the source gives them in different places.

As for `CC(O)COC[C@H]1O[C@@H]2O[C@H]3[C@H](O)[C@@H](O)[C@@H](O[C@H]4[C@H](O)[C@@H](O)[C@@H](O[C@H]5[C@H](O)[C@@H](O)[C@@H](O[C@H]6[C@H](O)[C@@H](O)[C@@H](O[C@H]7[C@H](O)[C@@H](O)[C@@H](O[C@H]8[C@H](O)[C@@H](O)[C@@H](O[C@H]1[C@H](O)[C@H]2O)O[C@@H]8COCC(C)O)O[C@@H]7COCC(C)O)O[C@@H]6COCC(C)O)O[C@@H]5COCC(C)O)O[C@@H]4COCC(C)O)O[C@@H]3COCC(C)O` (stereo partly drawn) [HP-β-CD, hydroxypropyl-β-cyclodextrin], in [1] (HP-β-CD, mean over the studied PPs), the CE mean value was 1.42.
For the compound “randomly methylated β-cyclodextrin [RAMEB]”, in data set [2], the CE mean value was determined as 1.70.
`O=C(O)/C=C/c1ccc(O)c(O)c1` [Caffeic acid (6), caffeic acid]: the “Formation constant (Kf)” value in data set [3] is 1540 M⁻¹; in data set [4] it was 318 M⁻¹; in data set [5], 526 M⁻¹; in [6] it was 991 M⁻¹; in data set [7] it was 404 M⁻¹; in [13] (ref 26), 278 M⁻¹. Also, the “Formation constant (Kf)” value in [13] (ref 27) was 516 M⁻¹; in data set [14] (ref 28) it was 279 M⁻¹. Also, the “Increase in formulation bulk” value came to 7 in [8]; 15 in data set [9] (β-CD, from CE and molecular weights); 18 in [1] (HP-β-CD, from CE and molecular weights); 13 in data set [2] (RAMEB, from CE and molecular weights); 14 in data set [10] (CRYSMEB, from CE and molecular weights). The Kf was determined as 1819 M⁻¹ in data set [8]; 425 M⁻¹ in data set [9]; 534 M⁻¹ in [1] (HP-β-CD, from slope of phase solubility diagram and S0, 25 °C); 825 M⁻¹ in data set [2] (RAMEB, from slope of phase solubility diagram and S0, 25 °C); 552 M⁻¹ in data set [10] (CRYSMEB, from slope of phase solubility diagram and S0, 25 °C). This compound also showed a solubility at 24 h in [11] of 300 µg/mL (≈ 1670 µM). In [12], the “Change of DPPH radical scavenging activity upon complexation with CDs” value (“Change” below) is “kept unchanged”. Besides, the “Kinetic behavior of reaction with DPPH•” value in [12] is on record as “reacted rapidly”. Moreover, in [12], the “DPPH radical scavenging (antioxidant) activity of PP alone” value (“DPPH radical scavenging … of PP alone” below) is “higher antioxidant activity”.
Consider isoeugenol [Isoeugenol (3)], for which, in data set [12], the “Change” value was “kept unchanged”, the “Kinetic behavior of reaction with DPPH•” value is reported as “reacted rapidly” and the “DPPH radical scavenging … of PP alone” value was “higher antioxidant activity”.
In the case of `COc1cc(/C=C/C(=O)O)ccc1O` [Ferulic acid (7), ferulic acid], the “Formation constant (Kf)” value was 1769 M⁻¹ in data set [3]; 246 M⁻¹ in data set [4]; 451 M⁻¹ in data set [5]; 908 M⁻¹ in data set [6]; 474 M⁻¹ in [7]; 1162 M⁻¹ in data set [15] (ref 29). Moreover, the “Formation constant (Kf)” value in data set [13] (ref 30) is 205 M⁻¹; in [14] (ref 30), 590 M⁻¹. In [12], the “Change” value was “kept unchanged”. Also, the “Kinetic behavior of reaction with DPPH•” value in [12] is “reacted rapidly”. In data set [12], the “DPPH radical scavenging … of PP alone” value is “higher antioxidant activity”. Further, in [16], the “log P” value is listed as 1.249.
Consider `OC[C@H]1O[C@@H]2O[C@H]3[C@H](O)[C@@H](O)[C@@H](O[C@H]4[C@H](O)[C@@H](O)[C@@H](O[C@H]5[C@H](O)[C@@H](O)[C@@H](O[C@H]6[C@H](O)[C@@H](O)[C@@H](O[C@H]7[C@H](O)[C@@H](O)[C@@H](O[C@H]8[C@H](O)[C@@H](O)[C@@H](O[C@H]1[C@H](O)[C@H]2O)O[C@@H]8CO)O[C@@H]7CO)O[C@@H]6CO)O[C@@H]5CO)O[C@@H]4CO)O[C@@H]3CO` [β-CD, β-cyclodextrin], for which the CE mean value in data set [9] is 0.91.
In data set [10], low methylated β-cyclodextrin [CRYSMEB] came in with a CE mean value of 1.21.
As for `C/C=C/c1ccc(OC)cc1` [trans-Anethole (1), trans-anethole], the “Formation constant (Kf)” value in [3] was 927 M⁻¹; in [4], 542 M⁻¹; in data set [5] it was 845 M⁻¹; in data set [6] it was 1815 M⁻¹; in [7], 1039 M⁻¹; in data set [15] (ref 11), 1163 M⁻¹. For the same compound, the “Formation constant (Kf)” value in data set [15] (ref 23) is 710 M⁻¹; in data set [13] (ref 11), 630 M⁻¹; in data set [13] (ref 23), 497 M⁻¹; in [14] (ref 11) it was 1042 M⁻¹; in data set [14] (ref 23), 981 M⁻¹; in data set [17] (ref 11), 1553 M⁻¹. Besides, the “Formation constant (Kf)” value in data set [17] (ref 23) was 1110 M⁻¹; in data set [18] (ref 11), 740 M⁻¹; in data set [18] (ref 23) it was 877 M⁻¹. In addition, the “Change” value in data set [12] is “increase in activity”. Further, the “Kinetic behavior of reaction with DPPH•” value in [12] is listed as “slow kinetic behavior”. The “DPPH radical scavenging … of PP alone” value in data set [12] is “reacted little”. Also, the “log P” value in data set [16] is 3.096.
With `C=CCc1ccc(OC)cc1` [Estragole (2), estragole], the “Formation constant (Kf)” value was 335 M⁻¹ in [3]; 987 M⁻¹ in data set [4]; 1508 M⁻¹ in data set [5]; 1916 M⁻¹ in data set [6]; 1584 M⁻¹ in data set [7]. The “Increase in formulation bulk” value in [8] is listed as 36; in data set [9] it was 35; in data set [1], 32; in data set [2] it was 26; in data set [10], 25. Further, the Kf was 682 M⁻¹ in data set [8]; 882 M⁻¹ in data set [9]; 1412 M⁻¹ in data set [1]; 1694 M⁻¹ in [2]; 1512 M⁻¹ in data set [10]. The “Change” value in data set [12] was “increase in activity”. Also, the “Kinetic behavior of reaction with DPPH•” value in [12] is reported as “slow kinetic behavior”. Moreover, the “DPPH radical scavenging … of PP alone” value in data set [12] is given as “reacted little”. Moreover, the “log P” value in data set [16] was 2.818.
Turning to `CN(C)c1ccc(N=Nc2ccc(S(=O)(=O)[O-])cc2)cc1.[Na+]` [MO, methyl orange, reference compound], the “Formation constant (Kf)” value in [3] came to 7810 M⁻¹; in data set [4] it was 2386 M⁻¹; in data set [5], 5597 M⁻¹; in data set [6], 15400 M⁻¹; in data set [7], 3594 M⁻¹.
